From US20240417437A1, “Linker Polypeptides” (Trutino Biosciences Inc., priority 2021, published 2024)
Blank lines part the entries; values can stand above or below the substance they belong to. Where no end group is shown, it is not given here. The star is where a group is joined. EDANS = O=S(=O)(O)c1cccc2c(NCCN*)cccc12

Tests used:
[1] = target: Collagen type I (Homo sapiens, UniProt P02452+P08123); conditions: binds to Collagen type I; Note 1 of Table 2; cited from earlier work
[2] = test system: Heparan sulfate proteoglycans; conditions: DTx protein derived sequences; cited from earlier work
[3] = pH-sensitive targeting sequences; cited from earlier work
[4] = target: fibronectin (Homo sapiens, UniProt P02751); conditions: derived from thrombospondin, cited from earlier work; for Note 1: affinity (binds to Fibronectin): pH-sensitive targeting sequences
Chain of fibronectin (Homo sapiens, UniProt P02751) (P02751 32-2477, species assumed): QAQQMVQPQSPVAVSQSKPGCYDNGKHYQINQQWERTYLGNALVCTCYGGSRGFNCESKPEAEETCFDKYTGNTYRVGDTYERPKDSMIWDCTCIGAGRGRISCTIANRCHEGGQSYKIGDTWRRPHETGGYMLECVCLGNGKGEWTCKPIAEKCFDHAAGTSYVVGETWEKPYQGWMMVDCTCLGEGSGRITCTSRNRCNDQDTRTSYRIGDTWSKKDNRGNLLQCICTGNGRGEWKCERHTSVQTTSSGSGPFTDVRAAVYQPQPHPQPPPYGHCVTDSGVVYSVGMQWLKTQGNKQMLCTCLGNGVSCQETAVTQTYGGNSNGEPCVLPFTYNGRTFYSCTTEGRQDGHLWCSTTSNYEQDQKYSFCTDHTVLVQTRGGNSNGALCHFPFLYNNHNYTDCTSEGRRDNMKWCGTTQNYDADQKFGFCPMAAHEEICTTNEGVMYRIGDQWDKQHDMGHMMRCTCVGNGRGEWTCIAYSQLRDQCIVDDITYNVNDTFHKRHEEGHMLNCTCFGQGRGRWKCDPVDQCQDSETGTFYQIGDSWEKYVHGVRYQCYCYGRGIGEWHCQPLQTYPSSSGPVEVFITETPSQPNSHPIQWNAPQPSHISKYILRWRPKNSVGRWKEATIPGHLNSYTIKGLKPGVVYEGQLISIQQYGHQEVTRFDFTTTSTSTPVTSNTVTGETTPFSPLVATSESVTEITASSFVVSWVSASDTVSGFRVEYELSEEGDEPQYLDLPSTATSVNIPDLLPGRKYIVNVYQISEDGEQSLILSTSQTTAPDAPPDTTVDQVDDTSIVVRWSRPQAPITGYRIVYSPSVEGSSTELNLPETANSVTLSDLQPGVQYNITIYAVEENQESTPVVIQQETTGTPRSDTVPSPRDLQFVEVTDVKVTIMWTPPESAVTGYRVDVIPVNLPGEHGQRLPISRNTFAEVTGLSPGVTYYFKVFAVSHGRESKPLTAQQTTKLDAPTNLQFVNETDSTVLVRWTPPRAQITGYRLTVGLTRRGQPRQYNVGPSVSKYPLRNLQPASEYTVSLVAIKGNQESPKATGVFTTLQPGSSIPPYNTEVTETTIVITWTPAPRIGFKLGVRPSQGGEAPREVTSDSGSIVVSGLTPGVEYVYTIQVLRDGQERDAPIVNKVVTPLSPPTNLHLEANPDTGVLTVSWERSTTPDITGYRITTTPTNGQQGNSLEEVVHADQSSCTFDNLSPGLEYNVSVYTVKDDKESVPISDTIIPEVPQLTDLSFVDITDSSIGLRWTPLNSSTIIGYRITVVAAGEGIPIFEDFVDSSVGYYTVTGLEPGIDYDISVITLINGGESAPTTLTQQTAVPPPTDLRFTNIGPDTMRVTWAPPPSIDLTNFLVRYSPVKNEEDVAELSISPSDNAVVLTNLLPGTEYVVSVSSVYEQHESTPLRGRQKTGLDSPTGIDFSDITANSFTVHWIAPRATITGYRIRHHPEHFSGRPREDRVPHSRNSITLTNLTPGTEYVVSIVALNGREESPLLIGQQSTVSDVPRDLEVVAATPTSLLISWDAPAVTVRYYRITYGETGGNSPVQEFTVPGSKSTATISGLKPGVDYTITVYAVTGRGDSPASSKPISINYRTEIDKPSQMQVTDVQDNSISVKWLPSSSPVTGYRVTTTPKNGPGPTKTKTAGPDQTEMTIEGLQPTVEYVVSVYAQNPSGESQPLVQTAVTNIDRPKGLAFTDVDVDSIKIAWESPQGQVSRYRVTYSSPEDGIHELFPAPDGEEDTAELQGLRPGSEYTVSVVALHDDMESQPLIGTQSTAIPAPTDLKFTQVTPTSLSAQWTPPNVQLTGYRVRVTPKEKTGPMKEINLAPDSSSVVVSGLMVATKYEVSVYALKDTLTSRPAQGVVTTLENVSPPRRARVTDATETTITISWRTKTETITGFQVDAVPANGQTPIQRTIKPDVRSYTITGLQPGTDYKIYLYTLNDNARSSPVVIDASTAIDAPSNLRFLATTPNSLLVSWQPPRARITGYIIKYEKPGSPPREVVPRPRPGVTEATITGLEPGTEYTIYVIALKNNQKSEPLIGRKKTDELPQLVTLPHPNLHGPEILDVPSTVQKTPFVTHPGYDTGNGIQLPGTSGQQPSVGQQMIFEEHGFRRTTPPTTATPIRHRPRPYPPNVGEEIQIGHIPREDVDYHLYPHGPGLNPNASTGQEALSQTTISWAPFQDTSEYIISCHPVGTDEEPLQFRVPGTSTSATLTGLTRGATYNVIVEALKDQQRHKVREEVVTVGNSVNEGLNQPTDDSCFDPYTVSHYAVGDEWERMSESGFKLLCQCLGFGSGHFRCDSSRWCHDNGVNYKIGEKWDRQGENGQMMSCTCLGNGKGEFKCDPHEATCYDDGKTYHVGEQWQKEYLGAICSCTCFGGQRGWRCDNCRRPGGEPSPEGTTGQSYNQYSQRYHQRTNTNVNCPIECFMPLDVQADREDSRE

[5] = test system: MC38 colorectal cancer cells; assay: MC38 colorectal cancer tumor growth inhibition study; format: in vivo, C57BL/6 mice; conditions: low dose (1 mg/kg IP BIW)
Experimental: C57BL/6 mice were subcutaneously inoculated with MC38 colorectal cancer cells. When the average tumor volume reached 70-90 mm^3, animals were randomized into 10 groups based on tumor volumes (n 7 or 6 mice per treatment group).
Tumor volumes were measured twice a week for the duration of the study.

[6] = format: binding; conditions: compared with IL-15Rα-IL-15 fusion protein
Experimental: 96-well plates were coated with 10 μg/mL of Heparin-BSA conjugate (provided by Dr. Mueller, Boerhinger Ingelheim) or control BSA for 18-22 hours at room temperature on shaker (350 rpm). After washing, wells are blocked with 2% milk powder in PBS-0.05% Tween 20 or PBS-0.05% Tween 20/1% BSA for 90 minutes. The fusion proteins were then titrated in either 2% milk powder in PBS-0.05% Tween 20 or 1% BSA/PBS-0.05% Tween 20, pH 7.5 and/or pH 6, and added for 2 hours at room temperature with shaking. After washing, an anti-mouse IL-2 biotin-labelled detection antibody (JES6-5H4, ThermoFisher), anti-6×-His Tag HRP conjugate antibody (Invitrogen, 1 mg/mL, cat #MA1-21315-HRP), or anti-human IgG HRP conjugate antibody (SouthernBiotech) was added, and binding was detected using Ultra Streptavidin HRP (ThermoFisher). The plate was developed by adding the chromogenic tetramethylbenzidine substrate (Ultra TMB, ThermoFisher). The reaction was stopped by addition of 0.5 M H2SO4, and the absorbance was read at 450-650 nm. […] Moreover, when the same pH-dependent heparin binding motif was inserted into different locations of IL-2 fusion proteins, all resulting proteins bound heparin at pH 6 with similar high affinities (FIGS. 4F and 4G). Likewise, similar binding affinities were observed when another heparin targeting sequence was engineered into different sites of IL-2 fusion proteins (FIGS. 4H-4I). […]

[7] = test system: fibronectin; assay: EDANS linker peptide binding to fibronectin-coated magnetic beads; conditions: peptides 20 μM
Experimental: (§1) A series of peptides comprising an MMP cleavable site with or without the addition of a targeting sequence were synthesized and conjugated to the fluorophore EDANS (5-((2-Aminoethyl)amino)naphthalene-1-sulfonic acid) (custom synthesis, ThermoFisher). […] These peptides were then tested for their ability to bind ECM proteins such as heparin, fibronectin and collagen which are found in abundance in tumor stroma.
(§2) For fibronectin and collagen binding peptide assays, streptavidin coupled magnetic beads (Mag Sepharose, Cytiva and Dynabeads, ThermoFisher, respectively) were first incubated with biotin-labelled fibronectin (Cytoskeleton) or biotin-labelled collagen IV (Prospec) for 1 hour with gentle shaking. Following multiple washes, the ECM-coated beads were then incubated with Edans Peptides (20 μM) for 2 hours at room temperature with shaking in neutral or acidic binding buffer. Beads were then washed and resuspended in 100 μL of binding buffer in a black 96-well plate. Peptide binding was quantified by measuring the fluorescence of samples using excitation/emission spectra of EDANS (Ex 340/Em 490).

[8] = target: T1, collagen IV (Homo sapiens, UniProt P02462+P08572); assay: EDANS linker peptide binding to collagen IV-coated magnetic beads; conditions: peptides 20 μM, 2 hours
T1 construct: purchased Prospec
Experimental: as §1, §2

Chain of Collagen type I (P02452 162-1218 limits assumed): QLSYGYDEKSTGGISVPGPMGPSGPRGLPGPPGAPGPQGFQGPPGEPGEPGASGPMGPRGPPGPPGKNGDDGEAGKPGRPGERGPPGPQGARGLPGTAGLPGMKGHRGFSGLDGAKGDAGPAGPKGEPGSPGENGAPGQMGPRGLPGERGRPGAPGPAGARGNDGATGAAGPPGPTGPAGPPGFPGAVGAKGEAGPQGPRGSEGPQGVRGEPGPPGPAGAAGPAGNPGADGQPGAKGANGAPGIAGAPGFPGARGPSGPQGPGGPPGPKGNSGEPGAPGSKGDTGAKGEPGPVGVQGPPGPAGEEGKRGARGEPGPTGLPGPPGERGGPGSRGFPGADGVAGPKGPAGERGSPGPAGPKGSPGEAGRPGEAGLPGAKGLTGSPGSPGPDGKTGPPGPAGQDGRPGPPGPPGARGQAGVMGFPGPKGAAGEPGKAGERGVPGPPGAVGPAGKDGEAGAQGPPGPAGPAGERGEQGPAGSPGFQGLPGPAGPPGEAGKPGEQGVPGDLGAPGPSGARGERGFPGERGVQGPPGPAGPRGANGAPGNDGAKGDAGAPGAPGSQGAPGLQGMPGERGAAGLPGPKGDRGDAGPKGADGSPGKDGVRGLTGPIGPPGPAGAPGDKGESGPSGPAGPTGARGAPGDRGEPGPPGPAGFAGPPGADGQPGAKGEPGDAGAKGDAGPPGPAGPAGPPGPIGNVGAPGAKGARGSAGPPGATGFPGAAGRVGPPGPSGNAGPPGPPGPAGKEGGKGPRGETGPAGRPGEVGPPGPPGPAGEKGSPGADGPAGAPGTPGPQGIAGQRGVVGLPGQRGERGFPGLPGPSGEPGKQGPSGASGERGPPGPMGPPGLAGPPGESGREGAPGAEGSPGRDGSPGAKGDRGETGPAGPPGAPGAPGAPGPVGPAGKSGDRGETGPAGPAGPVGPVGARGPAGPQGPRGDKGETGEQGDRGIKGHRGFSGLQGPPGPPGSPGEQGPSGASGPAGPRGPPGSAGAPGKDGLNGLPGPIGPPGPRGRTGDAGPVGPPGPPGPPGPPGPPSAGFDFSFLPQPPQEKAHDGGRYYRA
Chain of Collagen type I (P08123 80-1119 limits assumed): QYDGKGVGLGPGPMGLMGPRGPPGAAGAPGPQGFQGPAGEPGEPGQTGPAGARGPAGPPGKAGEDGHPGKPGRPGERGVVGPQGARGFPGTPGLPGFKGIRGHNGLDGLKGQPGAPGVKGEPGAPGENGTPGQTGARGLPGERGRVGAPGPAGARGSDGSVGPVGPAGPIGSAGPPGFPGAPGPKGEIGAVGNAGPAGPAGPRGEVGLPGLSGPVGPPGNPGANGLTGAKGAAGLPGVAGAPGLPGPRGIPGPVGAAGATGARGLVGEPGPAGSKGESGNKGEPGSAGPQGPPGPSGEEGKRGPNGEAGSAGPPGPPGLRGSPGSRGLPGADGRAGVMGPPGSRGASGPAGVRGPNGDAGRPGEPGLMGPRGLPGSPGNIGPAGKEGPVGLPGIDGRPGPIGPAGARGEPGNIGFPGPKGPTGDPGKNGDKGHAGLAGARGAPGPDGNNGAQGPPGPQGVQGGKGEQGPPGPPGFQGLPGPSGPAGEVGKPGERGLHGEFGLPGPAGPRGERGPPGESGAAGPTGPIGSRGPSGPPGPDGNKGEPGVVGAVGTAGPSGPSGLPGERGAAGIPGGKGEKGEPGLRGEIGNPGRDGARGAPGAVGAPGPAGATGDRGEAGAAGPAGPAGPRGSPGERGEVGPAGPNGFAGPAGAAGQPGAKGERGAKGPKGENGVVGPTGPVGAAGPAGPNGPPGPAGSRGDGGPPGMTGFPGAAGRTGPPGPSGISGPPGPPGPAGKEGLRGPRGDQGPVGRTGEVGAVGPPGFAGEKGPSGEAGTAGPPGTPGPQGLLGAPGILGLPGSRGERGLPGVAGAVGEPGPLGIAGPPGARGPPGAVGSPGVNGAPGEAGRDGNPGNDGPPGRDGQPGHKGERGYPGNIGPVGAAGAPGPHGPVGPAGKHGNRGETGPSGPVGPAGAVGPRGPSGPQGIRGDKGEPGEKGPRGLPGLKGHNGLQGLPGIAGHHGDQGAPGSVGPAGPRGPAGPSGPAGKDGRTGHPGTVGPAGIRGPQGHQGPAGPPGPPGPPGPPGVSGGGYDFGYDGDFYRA

Substance: 189 (RRANAALKAGELYKSILYGC; Synthetic: Collagen type I) [Construct 189]
- Kd [1]: 0.86 µM

Substance: 190 (RRANAALKAGELYKCILYGC; Synthetic: Collagen type I) [Construct 190]
- Kd [1]: 0.01 µM

Substance: 191 (MIVIELGTNPLKSSGIENGAFQGMKK; Synthetic: Collagen type I) [Construct 191]
- Kd [1]: 0.394 µM

Substance: 192 (LRELHLNNN; Synthetic: Collagen type I) [Construct 192]
- Kd [1]: 0.17 µM

Substance: 194 (TKKTLRT; Synthetic: Collagen type I) [Construct 194]
- Kd [1]: ≤ 100 µM

Substance: 195 (CPKESCNLFVLKD; Synthetic: Collagen type I) [Construct 195]
- Kd [1]: 0.681 µM

Substance: 197 (HVWMQAPGGGK; Synthetic: Collagen type I, H-v-F/W-Q/ M-Q-P/A-P/K motif) [Construct 197]
- Kd [1]: 61 µM

Substance: 639 (NGRKIRMRCRAIDGD; Synthetic: Heparan sulfate proteoglycans ; binds to HSGP with high affinity (DTx protein)) [Construct 639]
- Note 1: binds to HSGP, affinity [2]: binds to HSGP with high affinity (DTx protein)

Substance: 640 (DVIRDKTKTKIESLK; Synthetic: Heparan sulfate proteoglycans ; binds to HSGP with low affinity (DTx protein)) [Construct 640]
- Note 1: binds to HSGP, affinity [2]: binds to HSGP with low affinity (DTx protein)

Substance: 642 (KHAHLKKQVSDHIAVY; Synthetic: Heparin; binds to heparin at low pH (high affinity)) [Construct 642]
- Note 1: binds to heparin at low pH (affinity) [3]: binds to heparin at low pH (high affinity)

Substance: 643 (TTEPSEEHNHHK; Synthetic: Heparin; binds to heparin at low pH (low affinity)) [Construct 643]
- Note 1: binds to heparin at low pH (affinity) [3]: binds to heparin at low pH (low affinity)

Substance: 644 (KHAHL; Synthetic: Heparin; binds to heparin at low pH (lower affinity)) [Construct 644]
- Note 1: binds to heparin at low pH (affinity) [3]: binds to heparin at low pH (lower affinity)

Substance: 645 (TTEPSEEHNHHK; Synthetic: Heparin; binds to heparin at low pH (lower affinity)) [Construct 645]
- Note 1: binds to heparin at low pH (affinity) [3]: binds to heparin at low pH (lower affinity)

Substance: 646 (TTEPSEEHNHHKHHDK; Synthetic: Heparin; binds to heparin at low pH (lower affinity)) [Construct 646]
- Note 1: binds to heparin at low pH (affinity) [3]: binds to heparin at low pH (lower affinity)

Substance: 647 (HKGQHR; Synthetic: Heparin; binds to heparin at low pH (lower affinity)) [Construct 647]
- Note 1: binds to heparin at low pH (affinity) [3]: binds to heparin at low pH (lower affinity)

Substance: 648 (KVEHRVKKRPPTWRHNVRAKYT; Synthetic: Heparin; binds to heparin at low pH) [Construct 648]
- Note 1: binds to heparin at low pH (affinity) [3]: binds to heparin at low pH

Substance: 649 (GGKVEHRVKKRPPTWRHNVRAKYT; Synthetic: Heparin; binds to heparin at low pH) [Construct 649]
- Note 1: binds to heparin at low pH (affinity) [3]: binds to heparin at low pH

Substance: 650 (KKRPPTWRHNV; Synthetic: Heparin; binds to heparin at low pH) [Construct 650]
- Note 1: binds to heparin at low pH (affinity) [3]: binds to heparin at low pH

Substance: 653 (GGWSHW; Synthetic: Fibronectin; derived from thrombospondin (highest affinity)) [Construct 653]
- Note 2: pH dependence of binding to Fibronectin [4]: binds better at lower pH
- Note 1: affinity (binds to Fibronectin) [4]: (highest affinity)

Substance: 655 (KRFKQDGGWSHWSP; Synthetic: Fibronectin; derived from thrombospondin (medium affinity)) [Construct 655]
- Note 1: affinity (binds to Fibronectin) [4]: derived from thrombospondin (medium affinity)

Substance: 656 (GGWSHWSPWSS; Synthetic: Fibronectin; derived from thrombospondin (medium affinity)) [Construct 656]
- Note 1: affinity (binds to Fibronectin) [4]: derived from thrombospondin (medium affinity)

Substance: Construct NNN: huIL2(C125S)-SGGKLWVLPK-MMPcs1-2x(G4S)-huIL2Ra(1-219;M25I)-GSGGGG-huIgG1(LALA); col IV
- efficacy (TGI) in low dose treatment groups [5]: superior efficacy over parental non-targeting constructs

- heparin binding of IL-15 linker polypeptide fusion proteins [6]: lost
Substance: Construct VVV: huIL15Ra(1-77)-linker-huIL15-(SG3)-GPLGVRG-4x(G4S)-IL2Rb(1-214)-6xHis; no TME

- heparin binding of IL-15 linker polypeptide fusion proteins [6]: recovered
Substance: Construct WWW: huIL15Ra(1-77)-linker-huIL15-(SG3)-GPLGVRG-gsVRIQRKKEKMKET-3x(G4S)-IL2Rb(1-214)-6xHis

- peptide binding to fibronectin at pH 6 vs. pH 7.5 [7]: enhanced binding at pH 6
- peptide binding to fibronectin (EDANS fluorescence) ([7]; 2 hours): able to bind fibronectin
Substance: peptide 13: EDANS-conjugated GGGWSHWGPLGVRG-* (SEQ ID NO: 671); pH dependent fibronectin (GGGWSHWGPLGVRG-{EDANS})

- peptide binding to collagen IV (EDANS fluorescence) [8]: strongly bound
Substance: peptide 14: EDANS-conjugated KLWVLPKGPLGVRG-* (SEQ ID NO: 672); Collagen IV (KLWVLPKGPLGVRG-{EDANS})

- peptide binding to collagen IV (EDANS fluorescence) [8]: bound to a lesser extent
Substance: peptide 15: EDANS-conjugated GGGSGLHERHLNNN-* (SEQ ID NO: 673); Collagen I (GGGSGLHERHLNNN-{EDANS})
